Assay results from patent US10342804B2, “Steroid compound for use in the treatment of hepatic encephalopathy” (Umecrine Cognition AB, priority 2014, dated 2019).

Assays:
[1] = target: T1, human α5β3γ2L GABAA receptors (Homo sapiens, UniProt P28472+P31644); assay: Whole-cell voltage-clamp electrophysiology, HEK-293 cells expressing α5β3γ2L GABAA receptors; assay type: cell-based; settings: α5β3γ2L expressing cells
T1 construct: expressed in transfected cells; host or cells: HEK-293, permanently transfected
T1 sequence (P31644 32-462): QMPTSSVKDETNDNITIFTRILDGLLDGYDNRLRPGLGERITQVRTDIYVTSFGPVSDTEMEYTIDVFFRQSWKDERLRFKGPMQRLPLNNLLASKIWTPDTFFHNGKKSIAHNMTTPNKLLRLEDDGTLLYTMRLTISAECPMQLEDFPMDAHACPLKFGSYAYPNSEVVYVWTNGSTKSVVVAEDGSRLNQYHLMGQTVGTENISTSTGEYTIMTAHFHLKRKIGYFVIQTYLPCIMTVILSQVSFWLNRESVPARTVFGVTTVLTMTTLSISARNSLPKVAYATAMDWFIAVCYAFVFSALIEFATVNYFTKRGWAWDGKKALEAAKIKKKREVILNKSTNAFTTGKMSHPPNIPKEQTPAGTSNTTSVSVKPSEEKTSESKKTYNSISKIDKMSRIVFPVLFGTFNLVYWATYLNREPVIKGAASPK
T1 sequence (P28472 26-473): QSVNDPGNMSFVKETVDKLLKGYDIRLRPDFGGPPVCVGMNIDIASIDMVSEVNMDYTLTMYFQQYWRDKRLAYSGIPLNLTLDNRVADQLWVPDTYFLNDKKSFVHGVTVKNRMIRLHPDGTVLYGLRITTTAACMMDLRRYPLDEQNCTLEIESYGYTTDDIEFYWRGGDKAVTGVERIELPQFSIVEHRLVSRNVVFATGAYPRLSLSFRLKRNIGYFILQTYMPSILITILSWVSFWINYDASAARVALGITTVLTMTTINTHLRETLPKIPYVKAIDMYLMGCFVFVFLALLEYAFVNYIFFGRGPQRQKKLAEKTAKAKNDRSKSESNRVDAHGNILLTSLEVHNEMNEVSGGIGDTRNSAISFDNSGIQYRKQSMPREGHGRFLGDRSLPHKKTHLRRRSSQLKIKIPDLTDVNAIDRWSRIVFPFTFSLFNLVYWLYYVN
T1 sequence (P18507 40-475 partner): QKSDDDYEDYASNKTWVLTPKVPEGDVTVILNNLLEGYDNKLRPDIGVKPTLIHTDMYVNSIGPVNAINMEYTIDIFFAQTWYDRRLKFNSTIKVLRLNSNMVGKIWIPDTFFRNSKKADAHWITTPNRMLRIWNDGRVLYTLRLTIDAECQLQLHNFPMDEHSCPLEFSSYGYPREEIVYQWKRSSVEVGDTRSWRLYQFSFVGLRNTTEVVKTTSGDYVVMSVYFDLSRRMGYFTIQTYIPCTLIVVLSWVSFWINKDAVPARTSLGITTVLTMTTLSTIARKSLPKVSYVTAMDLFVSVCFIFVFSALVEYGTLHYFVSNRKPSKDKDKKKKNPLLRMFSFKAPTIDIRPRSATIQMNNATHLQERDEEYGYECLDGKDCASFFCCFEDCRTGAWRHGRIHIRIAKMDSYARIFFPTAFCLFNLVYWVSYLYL
Protocol: (§1) For electrophysiology measurements the Dynaflow® system with the Resolve chip was used (Cellectricon, Göteborg, Sweden). HEK-293 cells were permanently transfected with vectors including the human CMV promoter for constitutive expression of the human α5, β3, and γ2L GABAA receptor subunits (α5β3γ2L) or the human α1, β2, and γ2L GABAA receptor subunits (α1β2γ2L). The cell lines used were selected for good reactivity to GABA and to THDOC. Before measurements cells were incubated for 15 min at 37° C. in 95% air+5% CO2 in extracellular solution (EC) containing the following: 137 mM NaCl, 5.0 mM KCl, 1.0 mM CaCl2, 1.2 mM MgCl2, 10 mM HEPES, and 10 mM glucose, 0.1% DMSO pH 7.4. Thereafter, detached cells were added to the EC solution in the Dynaflow chip bath.
(§2) Whole-cell voltage-clamp recordings were made at room temperature (21-23° C., −17 mV with compensation for liquid junction potential as in Haage et al., 2002; Neher, 1992). Command pulses were generate and data collected by PClamp 9.0 software, DigiData 1322A converter, and AxonPatch 200B (Axon Instruments, Foster City, Calif.). Patch electrodes (2-6 MΩ) were filled with intracellular solution (IC) including: 140 mM Cs-gluconate, 3.0 mM NaCl, 1.2 mM MgCl2, 10 mM HEPES, 1.0 mM EGTA, 2 mM Mg-ATP, 0.1% DMSO, pH 7.2.
(§3) THDOC and 3α-ethynyl-3β-hydroxyandrostan-17-one oxime were dissolved in dimethyl sulfoxide (DMSO) and thereafter diluted with EC solution to include 0.1% DMSO.
(§4) Different protocols were used for different electrophysiology measurements. As α1β2γ2L-GABAA receptors in vivo are present within the synapse a condition resembling that situation, a short application (40 ms) of a high GABA concentration (30 μM), was used. Contrary, α5β3γ2L-GABAA receptors are present extrasynaptically, thus the conditions used were long exposures (6 s) to a low GABA concentration (0.3 μM). The EC75 concentration of THDOC was used, i.e. 100 nM with studies of α1β2γ2L and 200 nM when α5β3γ2L expressing cells were evaluated. With both cell types a pre-exposure with THDOC or THDOC plus 3α-ethynyl-3β-hydroxyandrostan-17-one oxime was used before application of GABA.
(§5) Steroid effects in presence of GABA were normalized to controls in order to avoid the effects of inter- and intracellular variation in the measured parameters, each cell was used as its own control and the area under the curve (AUC) was analyzed.

[2] = target: T2, human α1β2γ2L GABAA receptors (Homo sapiens, UniProt P14867+P47870); assay: Whole-cell voltage-clamp electrophysiology, HEK-293 cells expressing α1β2γ2L GABAA receptors; assay type: cell-based; settings: α1β2γ2L expressing cells
T2 construct: expressed in transfected cells; host or cells: HEK-293, permanently transfected
T2 sequence (P14867 28-456): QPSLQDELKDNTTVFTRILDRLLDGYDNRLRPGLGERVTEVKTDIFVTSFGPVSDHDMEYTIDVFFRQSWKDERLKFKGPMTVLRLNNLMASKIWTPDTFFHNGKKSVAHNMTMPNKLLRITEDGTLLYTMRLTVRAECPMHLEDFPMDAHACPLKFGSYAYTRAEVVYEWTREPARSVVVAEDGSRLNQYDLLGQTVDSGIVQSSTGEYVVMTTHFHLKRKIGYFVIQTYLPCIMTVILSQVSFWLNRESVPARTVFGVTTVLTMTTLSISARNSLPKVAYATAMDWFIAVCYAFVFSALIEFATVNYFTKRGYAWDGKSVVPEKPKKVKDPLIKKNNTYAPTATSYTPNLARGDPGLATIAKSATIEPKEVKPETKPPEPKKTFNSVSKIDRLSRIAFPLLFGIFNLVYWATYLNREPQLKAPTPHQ
T2 sequence (P47870 25-512 limits assumed): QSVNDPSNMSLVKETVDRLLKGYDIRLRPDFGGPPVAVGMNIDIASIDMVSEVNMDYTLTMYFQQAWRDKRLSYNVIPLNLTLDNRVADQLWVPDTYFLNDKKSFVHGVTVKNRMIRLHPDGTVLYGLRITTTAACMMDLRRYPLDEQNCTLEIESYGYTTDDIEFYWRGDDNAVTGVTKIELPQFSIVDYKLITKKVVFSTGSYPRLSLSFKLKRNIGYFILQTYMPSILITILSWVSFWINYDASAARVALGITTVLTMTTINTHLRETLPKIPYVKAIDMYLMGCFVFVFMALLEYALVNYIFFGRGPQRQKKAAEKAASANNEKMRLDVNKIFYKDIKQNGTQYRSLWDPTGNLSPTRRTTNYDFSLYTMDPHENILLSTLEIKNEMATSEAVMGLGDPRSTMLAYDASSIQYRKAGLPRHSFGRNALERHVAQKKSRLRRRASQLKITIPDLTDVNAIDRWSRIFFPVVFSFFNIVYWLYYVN
T2 sequence (P18507 40-475 partner): as the sequence (P18507 40-475 partner) above
Protocol: as §1, §2, §3, §4, §5

C[C@]12CC[C@@H](O)C[C@H]1CC[C@@H]1[C@@H]2CC[C@]2(C)[C@@H](C(=O)CO)CC[C@@H]12 [THDOC, tetrahydrodeoxycorticosterone, reference compound]
EC75 concentration of THDOC [1]: 200 nM | EC75 concentration of THDOC [2]: 100 nM
